Active and inactive are the calls of the source. The rule behind the calls is not given here.
Key:
[1] = Apparent volume of distribution during terminal phase in Balb/c mouse at 5 mg/kg, ip administered as single dose measured upto 24 hrs by LC-MS/MS analysis; format: ADME, organism-based; settings: in vivo, 5 mg/kg, 24 h
[2] = AUC (0 to infinity) in Balb/c mouse at 2 mg/kg, iv administered as single dose measured up to 24 hrs by LC-MS/MS analysis; format: ADME, organism-based; parameters: route intravenous, dose 2 mg/kg, time <=24; settings: in vivo
[3] = Oral bioavailability in Balb/c mouse at 10 mg/kg administered as single dose measured upto 24 hrs by LC-MS/MS analysis; format: ADME, organism-based; settings: in vivo
Plasmodium falciparum [4] = assay: Antiplasmodial activity against synchronized ring stage Plasmodium falciparum 3D7 infected in human erythrocytes assessed as new ring stage formation at 10 times IC50 incubated for 12 hrs followed by compound washout and measured at 50 hrs by […] analysis; format: functional, organism-based; settings: Erythrocyte
Plasmodium falciparum [5] = assay: (§1) Antimalarial activity against synchronized schizont stage transgenic Plasmodium falciparum 3D7 with C-terminal glmS-fused HDAC1 knockdown assessed as parasite growth inhibition pretreated with glucosamine followed by compound treatment and incubated for 4 hrs followed by compound washout for thrice and subsequent culturing for 68 hrs by SYBR Green 1 staining based analysis; format: functional, organism-based
[6] = Apparent volume of distribution during terminal phase in Balb/c mouse at 2 mg/kg, iv administered as single dose measured upto 24 hrs by LC-MS/MS analysis; format: ADME, organism-based; settings: in vivo
[7] = Toxicity in Balb/c mouse infected with sporozoites liver stage Plasmodium berghei assessed as animal death at 30 mg/kg, ip administered as single dose and measured upto 96 hrs; format: organism-based; settings: in vivo
Plasmodium falciparum [8] = assay: Inhibition of Plasmodium falciparum HDAC assessed as hyperacetylation of histone H3 at 20 times IC50 incubated for 4 hrs by Western blot analysis
Histone deacetylase 1 = Histone deacetylase 1 (Homo sapiens, UniProt Q13547); format: ADME, cell-based, Sf9
Histone deacetylase 1, sequence (Q13547 whole entry): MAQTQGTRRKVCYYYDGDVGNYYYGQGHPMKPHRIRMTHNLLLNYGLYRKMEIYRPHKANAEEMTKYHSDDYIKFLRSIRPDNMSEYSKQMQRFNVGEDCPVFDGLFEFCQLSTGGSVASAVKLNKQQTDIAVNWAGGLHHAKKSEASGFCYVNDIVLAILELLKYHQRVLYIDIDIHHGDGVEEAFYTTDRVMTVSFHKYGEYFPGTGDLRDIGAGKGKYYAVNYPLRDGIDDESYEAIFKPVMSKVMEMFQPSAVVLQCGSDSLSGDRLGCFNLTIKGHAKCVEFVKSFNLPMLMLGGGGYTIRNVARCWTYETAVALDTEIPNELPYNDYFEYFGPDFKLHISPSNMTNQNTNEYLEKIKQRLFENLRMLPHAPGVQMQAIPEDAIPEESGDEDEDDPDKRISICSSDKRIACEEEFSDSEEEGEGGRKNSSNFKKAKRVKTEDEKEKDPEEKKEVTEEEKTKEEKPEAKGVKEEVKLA

Plasmodium yoelii [9] = assay: Antiplasmodial activity against blood stage Plasmodium yoelii infected in Balb/c mouse assessed as reduction in parasitemia at 10 to 30 mg/kg, ip QD for 5 consecutive days and measured on day 20 by microscopic analysis; format: functional, organism-based; settings: dose 10-30 mg/kg, time 5.0 day
[10] = Tmax in Balb/c mouse at 10 mg/kg, po administered as single dose measured upto 24 hrs by LC-MS/MS analysis; format: ADME, organism-based; settings: in vivo
[11] = Clearance in mouse liver microsomes incubated upto 45 mins in presence of NADPH by LC-MS/MS analysis; format: ADME, Microsome; settings: read-out: CLH
Plasmodium falciparum [12] = assay: Antiplasmodial activity against artemisinin-resistant ring stage Plasmodium falciparum 6320 infected in human erythrocytes assessed as reduction in parasite growth incubated for 72 hrs by Giemsa staining based light microscopic method; format: functional, organism-based; settings: Plasmodium falciparum, 6320, Erythrocyte
[13] = molecular target: Histone deacetylase 3/Nuclear receptor corepressor 2 (HDAC3/NCoR2) (Homo sapiens, UniProt O15379); assay: Inhibition of human C-terminal His-tagged HDAC3/N-terminal GST-tagged NCOR2 expressed in baculovirus infected Sf9 cells using Ac-peptide as substrate preincubated for 15 mins followed by substrate and trypsin addition and further incubated for 60 mins
Histone deacetylase 3/Nuclear receptor corepressor 2 (HDAC3/NCoR2), sequence (O15379 whole entry): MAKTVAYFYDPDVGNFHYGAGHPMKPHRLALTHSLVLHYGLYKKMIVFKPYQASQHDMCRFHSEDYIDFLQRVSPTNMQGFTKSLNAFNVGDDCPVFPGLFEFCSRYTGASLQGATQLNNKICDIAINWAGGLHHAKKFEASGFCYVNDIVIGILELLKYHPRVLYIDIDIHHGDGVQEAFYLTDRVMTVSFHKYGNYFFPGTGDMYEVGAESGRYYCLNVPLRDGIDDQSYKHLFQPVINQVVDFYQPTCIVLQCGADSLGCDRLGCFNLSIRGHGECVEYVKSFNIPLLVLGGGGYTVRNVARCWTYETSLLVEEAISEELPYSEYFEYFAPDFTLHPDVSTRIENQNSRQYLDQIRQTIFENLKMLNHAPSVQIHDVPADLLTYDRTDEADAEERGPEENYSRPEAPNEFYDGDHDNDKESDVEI
Histone deacetylase 3/Nuclear receptor corepressor 2 (HDAC3/NCoR2), sequence (Q9Y618 whole entry, further chain): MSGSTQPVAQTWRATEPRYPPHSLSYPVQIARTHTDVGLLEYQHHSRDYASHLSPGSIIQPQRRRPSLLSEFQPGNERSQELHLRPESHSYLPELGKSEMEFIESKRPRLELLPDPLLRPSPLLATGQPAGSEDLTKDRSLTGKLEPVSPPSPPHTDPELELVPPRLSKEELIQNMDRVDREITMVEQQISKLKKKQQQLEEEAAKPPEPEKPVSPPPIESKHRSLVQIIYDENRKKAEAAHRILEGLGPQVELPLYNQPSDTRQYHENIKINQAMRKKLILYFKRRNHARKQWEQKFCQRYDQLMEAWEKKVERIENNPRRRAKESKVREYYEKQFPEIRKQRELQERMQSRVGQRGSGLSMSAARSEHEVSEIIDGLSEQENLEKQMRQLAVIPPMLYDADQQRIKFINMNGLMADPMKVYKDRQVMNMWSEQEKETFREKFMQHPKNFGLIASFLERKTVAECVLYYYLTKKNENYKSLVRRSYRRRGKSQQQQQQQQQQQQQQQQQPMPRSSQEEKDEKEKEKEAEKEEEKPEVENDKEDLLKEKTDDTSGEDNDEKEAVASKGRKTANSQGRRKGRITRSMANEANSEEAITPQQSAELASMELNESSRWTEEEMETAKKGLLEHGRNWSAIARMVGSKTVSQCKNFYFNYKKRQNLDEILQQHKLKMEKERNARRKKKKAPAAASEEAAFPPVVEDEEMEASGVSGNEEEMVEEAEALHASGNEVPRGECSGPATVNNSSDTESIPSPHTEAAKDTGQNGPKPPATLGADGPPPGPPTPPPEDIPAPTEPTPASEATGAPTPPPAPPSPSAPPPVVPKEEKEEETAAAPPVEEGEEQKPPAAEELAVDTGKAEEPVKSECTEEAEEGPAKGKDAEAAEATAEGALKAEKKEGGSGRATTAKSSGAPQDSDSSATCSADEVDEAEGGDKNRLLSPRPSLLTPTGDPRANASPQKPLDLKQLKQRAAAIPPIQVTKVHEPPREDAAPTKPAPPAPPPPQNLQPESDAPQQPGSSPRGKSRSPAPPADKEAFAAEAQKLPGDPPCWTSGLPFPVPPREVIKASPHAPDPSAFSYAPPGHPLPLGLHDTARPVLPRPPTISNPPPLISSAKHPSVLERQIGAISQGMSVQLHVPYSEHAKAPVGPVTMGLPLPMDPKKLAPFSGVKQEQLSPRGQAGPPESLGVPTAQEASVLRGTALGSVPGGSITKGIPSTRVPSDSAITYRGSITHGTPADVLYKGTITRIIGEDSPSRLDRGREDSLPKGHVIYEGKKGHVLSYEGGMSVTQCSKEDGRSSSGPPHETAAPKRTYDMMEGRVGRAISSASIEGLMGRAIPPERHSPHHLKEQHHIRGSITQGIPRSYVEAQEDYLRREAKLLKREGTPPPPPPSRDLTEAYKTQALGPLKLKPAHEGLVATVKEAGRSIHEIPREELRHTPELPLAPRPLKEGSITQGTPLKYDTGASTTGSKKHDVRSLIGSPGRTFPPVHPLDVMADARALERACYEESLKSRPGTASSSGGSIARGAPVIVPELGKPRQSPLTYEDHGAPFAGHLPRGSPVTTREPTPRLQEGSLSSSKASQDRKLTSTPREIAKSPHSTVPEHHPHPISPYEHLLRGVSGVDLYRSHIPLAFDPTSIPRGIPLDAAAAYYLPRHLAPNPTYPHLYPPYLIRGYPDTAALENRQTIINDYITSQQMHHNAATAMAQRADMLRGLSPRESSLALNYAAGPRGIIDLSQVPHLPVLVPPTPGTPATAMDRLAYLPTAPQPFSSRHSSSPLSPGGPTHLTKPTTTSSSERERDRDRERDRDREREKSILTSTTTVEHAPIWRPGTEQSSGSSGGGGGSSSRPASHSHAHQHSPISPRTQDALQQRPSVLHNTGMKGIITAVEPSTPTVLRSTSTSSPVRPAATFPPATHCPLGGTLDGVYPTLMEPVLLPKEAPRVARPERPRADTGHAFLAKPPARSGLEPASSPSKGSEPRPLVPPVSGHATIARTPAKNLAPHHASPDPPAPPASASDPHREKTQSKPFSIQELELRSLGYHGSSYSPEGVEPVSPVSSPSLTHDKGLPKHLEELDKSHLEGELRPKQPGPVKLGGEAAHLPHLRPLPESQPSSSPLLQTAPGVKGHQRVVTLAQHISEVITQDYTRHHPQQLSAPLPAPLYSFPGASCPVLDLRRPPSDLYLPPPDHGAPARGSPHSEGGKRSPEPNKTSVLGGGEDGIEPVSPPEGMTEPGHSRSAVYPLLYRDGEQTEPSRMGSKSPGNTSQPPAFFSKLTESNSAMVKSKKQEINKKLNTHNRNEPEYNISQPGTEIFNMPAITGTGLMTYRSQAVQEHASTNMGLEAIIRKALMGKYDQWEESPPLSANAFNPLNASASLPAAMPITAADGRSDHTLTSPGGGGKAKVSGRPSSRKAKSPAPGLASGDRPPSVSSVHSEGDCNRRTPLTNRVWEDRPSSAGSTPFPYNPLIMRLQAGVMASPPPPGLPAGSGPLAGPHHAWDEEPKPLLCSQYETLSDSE

[14] = Apparent clearance during terminal phase in Balb/c mouse at 2 mg/kg, iv administered as single dose measured upto 24 hrs by LC-MS/MS analysis; format: ADME, organism-based; settings: in vivo
[15] = Inhibition of recombinant full length C-terminal His/FLAG-tagged Plasmodium falciparum HDAC1 expressed in baculovirus infected sf9 insect cells using fluorogenic […] as substrate preincubated for 1.5 hrs followed by substrate addition and measured after 30 mins by HDAC-GloI/II assay
[16] = AUC (0 to t) in Balb/c mouse at 5 mg/kg, ip administered as single dose measured upto 24 hrs by LC-MS/MS analysis; format: ADME, organism-based; parameters: route intraperitoneal, dose 5 mg/kg, time <=24; settings: in vivo
Plasmodium yoelii [17] = assay: Antiplasmodial activity against blood stage Plasmodium yoelii infected in Balb/c mouse assessed as reduction in parasitemia at 60 mg/kg, ip QD for 5 consecutive days and measured on day 30 by microscopic analysis; format: functional, organism-based; settings: time 5.0 day
[18] = Selectivity index, ratio of IC50 for cytotoxicity against human HEK293T cells assessed to IC50 for antiplasmodial activity against synchronized ring stage Plasmodium falciparum 3D7 infected in human erythrocytes; format: toxicity, cell-based; settings: read-out: Ratio IC50
Plasmodium falciparum [19] = assay: Antiplasmodial activity against Plasmodium falciparum GB4 infected in human erythrocytes assessed as reduction in parasite growth incubated for 72 hrs by Giemsa staining based light microscopic method; format: functional, organism-based; settings: GB4, Erythrocyte
Plasmodium falciparum [20] = assay: Antiplasmodial activity against artemisinin-resistant Plasmodium falciparum 6218 infected in human erythrocytes assessed as reduction in parasite growth incubated for 72 hrs by Giemsa staining based light microscopic method; format: functional, organism-based; settings: Plasmodium falciparum, 6218, Erythrocyte
[21] = Apparent clearance during terminal phase in Balb/c mouse at 5 mg/kg, ip administered as single dose measured upto 24 hrs by LC-MS/MS analysis; format: ADME, organism-based; settings: in vivo, 5 mg/kg, 24 h
Histone deacetylase 2 = Histone deacetylase 2 (Homo sapiens, UniProt Q92769); assay: Inhibition of human HDAC2 expressed in Sf9 cells using Ac-peptide as substrate preincubated for 15 mins followed by substrate and trypsin addition and further incubated for 60 mins
Histone deacetylase 2, sequence (Q92769 whole entry): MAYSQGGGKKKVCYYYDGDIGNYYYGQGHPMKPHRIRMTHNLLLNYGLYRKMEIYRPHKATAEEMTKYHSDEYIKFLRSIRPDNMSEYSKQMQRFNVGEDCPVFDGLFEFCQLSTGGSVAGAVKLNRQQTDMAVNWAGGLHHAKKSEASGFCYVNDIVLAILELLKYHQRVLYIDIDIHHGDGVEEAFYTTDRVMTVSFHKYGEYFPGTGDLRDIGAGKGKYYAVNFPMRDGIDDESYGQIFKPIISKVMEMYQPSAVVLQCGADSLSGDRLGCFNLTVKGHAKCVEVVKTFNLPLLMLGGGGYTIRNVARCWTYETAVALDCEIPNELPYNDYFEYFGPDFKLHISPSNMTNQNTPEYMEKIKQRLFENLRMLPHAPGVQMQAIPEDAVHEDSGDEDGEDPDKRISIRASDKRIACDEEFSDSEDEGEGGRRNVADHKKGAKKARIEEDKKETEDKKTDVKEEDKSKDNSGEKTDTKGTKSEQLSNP

Plasmodium falciparum [22] = assay: Antiplasmodial activity against synchronized ring stage Plasmodium falciparum 3D7 infected in human erythrocytes assessed as reduction in parasite growth incubated for 72 hrs by Giemsa staining based light microscopic method; format: functional, organism-based; settings: 3D7, Erythrocyte
Plasmodium falciparum [23] = assay: Antiplasmodial activity against schizont stage Plasmodium falciparum 3D7 infected in human erythrocytes assessed as reduction in parasitemia at 10 times IC50 incubated for 12 hrs followed by compound washout and measured at 96 hrs post infection by […] analysis; format: functional, organism-based; settings: Erythrocyte
[24] = Half life in mouse liver microsomes incubated upto 45 mins in presence of NADPH by LC-MS/MS analysis; format: ADME, Microsome
Plasmodium falciparum [25] = assay: Antiplasmodial activity against artemisinin-resistant Plasmodium falciparum 6320 assessed as reduction in parasite survival at 700 nM incubated for 6 hrs followed by compound washout thrice and further cultured in compound free medium for 66 hrs by RSA; format: functional, organism-based
Plasmodium falciparum [26] = assay: as §1, with “HDAC2” for “HDAC1”; format: functional, organism-based
Plasmodium berghei = assay: Antiplasmodial activity against liver stage Plasmodium berghei infected in Balb/c mouse assessed as reduction in parasitemia at 30 mg/kg, ip administered as single dose and measured upto 96 hrs by microscopic analysis; format: functional, organism-based; settings: time hrs <=96
[27] = Half life in Balb/c mouse at 10 mg/kg, po administered as single dose measured upto 24 hrs by LC-MS/MS analysis; format: ADME, organism-based; settings: in vivo

Question: What does the source list for `Cl.O=C(NO)c1cnc(N2CCC3(CCN(Cc4c[nH]c5ccccc45)C3)CC2)nc1`?
Answer: Vz/F [1]: 60.4 L/kg; AUC(0-inf) [2]: 119 ng·h/mL; bioavailability [3]: 0.5%; Activity (Plasmodium falciparum [4]): Active; IC50 (Plasmodium falciparum [5]): 4.3 nM; Vz/F [6]: 10.3 L/kg; Activity [7]: Non-Toxic; inhibition (Plasmodium falciparum [8]): Active; IC50 (Histone deacetylase 1): 0.58 nM; Activity (Plasmodium yoelii [9]): inactive; Tmax [10]: 15 min; CLint scaled [11]: 121 mL/min/kg; IC50 (Plasmodium falciparum [12]): 2.9 nM; IC50 [13]: 3 nM; CLz/F [14]: 280 mL/min/kg; IC50 [15]: 0.343 nM; AUC(0-t) at 24 h [16]: 81.9 ng·h/mL; Activity (Plasmodium yoelii [17]): Active; selectivity ratio [18]: 75; IC50 (Plasmodium falciparum [19]): 3.9 nM; IC50 (Plasmodium falciparum [20]): 3 nM; CLz/F [21]: 567 mL/min/kg; IC50 (Histone deacetylase 2): 1.8 nM; IC50 (Plasmodium falciparum [22]): 3.19 nM; Activity (Plasmodium falciparum [23]): Active; half-life [24]: 45 min; Activity (Plasmodium falciparum [25]): Active; IC50 (Plasmodium falciparum [26]): 69.5 nM; Activity (Plasmodium berghei): Active; half-life [27]: 104 min

— ChEMBL document CHEMBL4706683 (J Med Chem, 2021)
